Results taken from patent US11285218B2, “Degradation of bromodomain-containing protein 9 (BRD9) by conjugation of BRD9 inhibitors with E3 ligase ligand and methods of use” (Dana-Farber Cancer Institute, Inc., priority 2016, dated 2022).
Entries after “also recorded” stand apart in the source; their conditions may differ.

Legend:
BRD9 [1] = target: T1, BRD9 (Homo sapiens, UniProt Q9H8M2); experiment: BRD9 immunoblot in MM1S cells
T1 sequence (Q9H8M2 1-597): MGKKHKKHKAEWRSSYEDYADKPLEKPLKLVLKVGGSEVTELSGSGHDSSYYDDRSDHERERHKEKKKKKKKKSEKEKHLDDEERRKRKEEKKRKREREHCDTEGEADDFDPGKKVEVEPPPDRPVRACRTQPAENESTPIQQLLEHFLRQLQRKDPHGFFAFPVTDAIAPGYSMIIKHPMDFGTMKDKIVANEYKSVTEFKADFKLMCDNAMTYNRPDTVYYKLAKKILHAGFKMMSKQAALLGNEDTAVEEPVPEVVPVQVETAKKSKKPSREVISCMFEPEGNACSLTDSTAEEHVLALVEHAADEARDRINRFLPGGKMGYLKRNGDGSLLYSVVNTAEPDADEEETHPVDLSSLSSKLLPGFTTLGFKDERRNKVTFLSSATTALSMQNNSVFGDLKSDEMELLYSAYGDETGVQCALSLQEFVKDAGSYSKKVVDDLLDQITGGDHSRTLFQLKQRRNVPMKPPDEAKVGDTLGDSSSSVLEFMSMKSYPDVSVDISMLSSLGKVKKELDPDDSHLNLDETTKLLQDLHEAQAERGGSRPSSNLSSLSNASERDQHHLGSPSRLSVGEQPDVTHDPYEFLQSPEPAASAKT
Description: (§2) In additional experiments, cells were washed with PBS, before being lysed in RIPA buffer supplemented with 1×HALT™ protease inhibitor cocktail (Thermo Scientific) for 10 min on ice, followed by low-amplitude sonication for 10 seconds at 4° C. […] In soluble material was removed by centrifugation at 20,000×g for 20 min before protein content was quantified by BCA assay (Pierce). […] Blots were imaged using fluorescence-labeled secondary antibodies (LI-COR) on the OdysseyCLxImager (LI-COR).

[2] = test system: 32 members of the human bromodomain family; experiment: BromoScan single-point screen, panel profile; type: binding; conditions: single-point 1 μM, 32 bromodomains; in words
Text: (§1) The BromoScan is an assay that measures the engagement of compounds with bromodomain proteins by utilizing DNA-tagged bromodomain and immobilized ligand attached to solid support. In the control test, DNA-tagged bromodomain binds to the ligand and the bromodomain is captured on the solid support. Compounds that compete for the bromodomain binding location on the ligand will prevent the bromodomain from binding, resulting in less protein captured on the solid support.

BRD9 [3] = target: T1, BRD9; experiment: BRD9 immunoblot in MOLM-13
Description: as §2

BRD4(1) = BRD4(1) (Homo sapiens, UniProt O60885); experiment: BromoScan single-point screen; type: binding; set-up: utilizing DNA-tagged bromodomain and immobilized ligand attached to solid support; conditions: percent of protein captured on solid support vs control
Text: as §1

CRBN-DDB1 = target: T2, CRBN-DDB1 (Homo sapiens, UniProt Q96SW2); experiment: CRBN-DDB1 ligand-displacement AlphaScreen; type: binding; conditions: purified CRBN-DDB1 ligand displacement
T2 construct: made in house; host or cells: Sf9 cells (Invitrogen)
Description: Following a 30 min incubation, 20 uL detection solution containing Streptavidin Donor Beads and Nickel Chelate AlphaLISA® Acceptor Beads diluted to 20 ng/uL in assay buffer was added to each well.

CREBBP = target: T3, CREBBP (Homo sapiens, UniProt Q92793); experiment: BromoScan single-point screen; type: binding; conditions: percent of protein captured on solid support vs control
T3 construct: utilizing DNA-tagged bromodomain and immobilized ligand attached to solid support
Text: as §1

BRD2(1) = target: T4, BRD2(1) (Homo sapiens, UniProt P25440); experiment: BromoScan single-point screen; type: binding; conditions: percent of protein captured on solid support vs control
T4 construct: utilizing DNA-tagged bromodomain and immobilized ligand attached to solid support
Text: as §1

GCN5L2 = target: T5, GCN5L2 (Homo sapiens, UniProt Q92830); experiment: BromoScan single-point screen; type: binding; conditions: percent of protein captured on solid support vs control
T5 construct: utilizing DNA-tagged bromodomain and immobilized ligand attached to solid support
Text: as §1

BRD3(1) = target: T6, BRD3(1) (Homo sapiens, UniProt Q15059); experiment: BromoScan single-point screen; type: binding; conditions: percent of protein captured on solid support vs control
T6 construct: utilizing DNA-tagged bromodomain and immobilized ligand attached to solid support
Text: as §1

TRIM24 (PHD, Bromo.) = target: T7, TRIM24 (PHD, Bromo.) (Homo sapiens, UniProt O15164); experiment: BromoScan single-point screen; type: binding; conditions: percent of protein captured on solid support vs control
T7 construct: utilizing DNA-tagged bromodomain and immobilized ligand attached to solid support
Text: as §1

SMARCA2 = target: T8, SMARCA2 (Homo sapiens, UniProt P51531); experiment: BromoScan single-point screen; type: binding; conditions: percent of protein captured on solid support vs control
T8 construct: utilizing DNA-tagged bromodomain and immobilized ligand attached to solid support
Text: as §1

BRDT(1) = target: T9, BRDT(1) (Homo sapiens, UniProt Q58F21); experiment: BromoScan single-point screen; type: binding; conditions: percent of protein captured on solid support vs control
T9 construct: utilizing DNA-tagged bromodomain and immobilized ligand attached to solid support
Text: as §1

TAF1(2) = target: T10, TAF1(2) (Homo sapiens, UniProt P21675); experiment: BromoScan single-point screen; type: binding; conditions: percent of protein captured on solid support vs control
T10 construct: utilizing DNA-tagged bromodomain and immobilized ligand attached to solid support
Text: as §1

BAZ^2B = target: T11, BAZ^2B (Homo sapiens, UniProt Q9UIF8); experiment: BromoScan single-point screen; type: binding; conditions: percent of protein captured on solid support vs control
T11 construct: utilizing DNA-tagged bromodomain and immobilized ligand attached to solid support
Text: as §1

WDR9(2) = target: T12, WDR9(2) (Homo sapiens, UniProt Q9NSI6); experiment: BromoScan single-point screen; type: binding; conditions: percent of protein captured on solid support vs control
T12 construct: utilizing DNA-tagged bromodomain and immobilized ligand attached to solid support
Text: as §1

BRDT(2) = target: T13, BRDT(2) (Homo sapiens, UniProt Q58F21); experiment: BromoScan single-point screen; type: binding; conditions: percent of protein captured on solid support vs control
T13 construct: utilizing DNA-tagged bromodomain and immobilized ligand attached to solid support
Text: as §1

ATAD2A = target: T14, ATAD2A (Homo sapiens, UniProt Q6PL18); experiment: BromoScan single-point screen; type: binding; conditions: percent of protein captured on solid support vs control
T14 construct: utilizing DNA-tagged bromodomain and immobilized ligand attached to solid support
Text: as §1

BRD4(2) = target: T15, BRD4(2) (Homo sapiens, UniProt O60885); experiment: BromoScan single-point screen; type: binding; conditions: percent of protein captured on solid support vs control
T15 construct: utilizing DNA-tagged bromodomain and immobilized ligand attached to solid support
Text: as §1

TAF1L(2) = target: T16, TAF1L(2) (Homo sapiens, UniProt Q8IZX4); experiment: BromoScan single-point screen; type: binding; conditions: percent of protein captured on solid support vs control
T16 construct: utilizing DNA-tagged bromodomain and immobilized ligand attached to solid support
Text: as §1

EP300 = target: T17, EP300 (Homo sapiens, UniProt Q09472); experiment: BromoScan single-point screen; type: binding; conditions: percent of protein captured on solid support vs control
T17 construct: utilizing DNA-tagged bromodomain and immobilized ligand attached to solid support
Text: as §1

BRD2(2) = target: T18, BRD2(2) (Homo sapiens, UniProt P25440); experiment: BromoScan single-point screen; type: binding; conditions: percent of protein captured on solid support vs control
T18 construct: utilizing DNA-tagged bromodomain and immobilized ligand attached to solid support
Text: as §1

CECR2 = target: T19, CECR2 (Homo sapiens, UniProt Q9BXF3); experiment: BromoScan single-point screen; type: binding; conditions: percent of protein captured on solid support vs control
T19 construct: utilizing DNA-tagged bromodomain and immobilized ligand attached to solid support
Text: as §1

ATAD2B = target: T20, ATAD2B (Homo sapiens, UniProt Q9ULI0); experiment: BromoScan single-point screen; type: binding; conditions: percent of protein captured on solid support vs control
T20 construct: utilizing DNA-tagged bromodomain and immobilized ligand attached to solid support
Text: as §1

BRPF1 = target: T21, BRPF1 (Homo sapiens, UniProt P55201); experiment: BromoScan single-point screen; type: binding; conditions: percent of protein captured on solid support vs control
T21 construct: utilizing DNA-tagged bromodomain and immobilized ligand attached to solid support
Text: as §1

FALZ = target: T22, FALZ (Homo sapiens, UniProt Q12830); experiment: BromoScan single-point screen; type: binding; conditions: percent of protein captured on solid support vs control
T22 construct: utilizing DNA-tagged bromodomain and immobilized ligand attached to solid support
Text: as §1

MV411 cell line = experiment: ATPlite viability assay, MV4;11; conditions: MV4;11, 72 hours; in words
Description: 500 cells/well were plated at a volume of 40 μL/well in white tissue culture treated 384 well assay plates (Thermo Scientific) before DMSO compound stock was added from pre-diluted plates by pin transfer using a Janus Workstation (PerkinElmer, USA). […] Assay plates were allowed to equilibrate to RT for 30 min before reconstituted ATPlite 1 Step reagent (Perkin Elmer) was dispensed at 1:1 volume/well by EL406 automated liquid handler (Biotek, USA).

[4] = MMIS cells, 4 hours pretreatment, then 100 nM

T16 sequence (Q8IZX4 1517-1626 limits assumed): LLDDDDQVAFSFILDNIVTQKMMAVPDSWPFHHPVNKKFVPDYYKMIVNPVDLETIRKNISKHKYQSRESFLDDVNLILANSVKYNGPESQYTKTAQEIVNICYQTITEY
T20 sequence (Q9ULI0 951-1066 limits assumed): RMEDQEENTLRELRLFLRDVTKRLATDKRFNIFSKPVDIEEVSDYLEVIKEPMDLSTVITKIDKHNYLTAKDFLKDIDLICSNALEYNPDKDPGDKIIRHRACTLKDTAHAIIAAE
T2 sequence (Q96SW2 whole entry): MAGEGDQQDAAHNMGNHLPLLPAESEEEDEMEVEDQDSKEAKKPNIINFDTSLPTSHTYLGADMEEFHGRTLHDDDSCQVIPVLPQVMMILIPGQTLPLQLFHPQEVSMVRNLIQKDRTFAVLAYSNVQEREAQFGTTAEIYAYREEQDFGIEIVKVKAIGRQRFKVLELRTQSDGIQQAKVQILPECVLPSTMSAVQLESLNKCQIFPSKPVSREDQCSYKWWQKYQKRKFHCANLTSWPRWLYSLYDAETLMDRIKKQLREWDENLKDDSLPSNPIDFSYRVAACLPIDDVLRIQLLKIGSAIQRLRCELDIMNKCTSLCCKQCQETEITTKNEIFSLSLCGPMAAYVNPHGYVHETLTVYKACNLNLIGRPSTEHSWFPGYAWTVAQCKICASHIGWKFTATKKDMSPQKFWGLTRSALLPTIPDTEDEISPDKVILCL
T2 sequence (Q16531 whole entry partner): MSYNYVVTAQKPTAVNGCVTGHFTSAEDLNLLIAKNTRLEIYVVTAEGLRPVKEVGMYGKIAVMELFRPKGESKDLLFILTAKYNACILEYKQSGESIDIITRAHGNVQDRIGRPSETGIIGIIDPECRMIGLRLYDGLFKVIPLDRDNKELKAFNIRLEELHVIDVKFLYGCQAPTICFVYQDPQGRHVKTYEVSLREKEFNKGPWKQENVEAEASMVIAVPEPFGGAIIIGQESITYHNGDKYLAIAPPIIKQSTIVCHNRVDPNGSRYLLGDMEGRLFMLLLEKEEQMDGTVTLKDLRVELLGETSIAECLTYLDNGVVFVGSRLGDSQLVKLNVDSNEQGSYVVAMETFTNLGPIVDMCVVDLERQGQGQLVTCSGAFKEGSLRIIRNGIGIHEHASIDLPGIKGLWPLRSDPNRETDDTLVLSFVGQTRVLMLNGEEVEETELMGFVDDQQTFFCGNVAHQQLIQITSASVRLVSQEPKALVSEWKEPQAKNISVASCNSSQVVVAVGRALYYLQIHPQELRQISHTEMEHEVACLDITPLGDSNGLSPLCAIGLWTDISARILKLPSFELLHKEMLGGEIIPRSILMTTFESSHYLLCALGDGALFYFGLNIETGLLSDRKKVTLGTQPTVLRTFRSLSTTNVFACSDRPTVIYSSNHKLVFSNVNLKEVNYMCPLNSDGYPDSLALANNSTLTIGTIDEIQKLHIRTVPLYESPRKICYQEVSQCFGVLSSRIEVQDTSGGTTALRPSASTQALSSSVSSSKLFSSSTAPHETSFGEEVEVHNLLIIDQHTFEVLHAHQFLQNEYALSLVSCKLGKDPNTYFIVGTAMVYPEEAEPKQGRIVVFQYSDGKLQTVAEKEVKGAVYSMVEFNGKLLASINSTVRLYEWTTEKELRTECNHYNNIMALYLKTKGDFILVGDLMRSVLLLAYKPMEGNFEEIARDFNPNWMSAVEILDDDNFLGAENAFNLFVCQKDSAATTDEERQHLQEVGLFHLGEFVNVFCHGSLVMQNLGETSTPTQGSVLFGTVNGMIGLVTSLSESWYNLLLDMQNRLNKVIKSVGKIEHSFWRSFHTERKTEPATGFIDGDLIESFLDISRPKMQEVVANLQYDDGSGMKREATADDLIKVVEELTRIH
T21 sequence (P55201 628-732 limits assumed): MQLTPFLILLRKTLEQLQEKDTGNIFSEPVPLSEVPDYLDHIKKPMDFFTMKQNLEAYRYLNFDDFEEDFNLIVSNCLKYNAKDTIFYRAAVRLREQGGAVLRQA
T3 sequence (Q92793 1085-1192 limits assumed): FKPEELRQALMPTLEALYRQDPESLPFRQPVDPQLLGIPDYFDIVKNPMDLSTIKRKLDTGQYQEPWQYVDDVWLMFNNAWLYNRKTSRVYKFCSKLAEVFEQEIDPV
T8 sequence (P51531 1378-1506 limits assumed): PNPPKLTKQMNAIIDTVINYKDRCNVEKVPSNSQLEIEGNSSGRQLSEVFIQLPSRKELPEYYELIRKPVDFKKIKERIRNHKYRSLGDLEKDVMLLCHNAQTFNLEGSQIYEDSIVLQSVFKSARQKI
T14 sequence (Q6PL18 980-1092 limits assumed): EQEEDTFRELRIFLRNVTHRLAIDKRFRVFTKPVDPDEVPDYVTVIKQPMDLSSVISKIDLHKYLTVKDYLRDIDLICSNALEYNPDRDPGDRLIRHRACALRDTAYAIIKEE
T5 sequence (Q92830 728-832 limits assumed): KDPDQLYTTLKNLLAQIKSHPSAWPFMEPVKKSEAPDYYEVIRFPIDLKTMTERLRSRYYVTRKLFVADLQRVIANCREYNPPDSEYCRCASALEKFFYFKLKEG
T17 sequence (Q09472 1049-1156 limits assumed): as the sequence (Q92793 1085-1192 limits assumed) above, with N47S, V73I, F93Y, A98S counted along it
T12 sequence (Q9NSI6 1313-1418 limits assumed): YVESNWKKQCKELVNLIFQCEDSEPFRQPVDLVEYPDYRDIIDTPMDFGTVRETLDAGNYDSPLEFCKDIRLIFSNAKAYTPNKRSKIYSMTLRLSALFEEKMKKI
T11 sequence (Q9UIF8 2060-2164 limits assumed): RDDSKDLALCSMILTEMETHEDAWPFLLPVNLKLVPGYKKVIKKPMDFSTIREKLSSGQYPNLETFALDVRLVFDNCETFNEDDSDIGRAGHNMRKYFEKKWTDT
T4 sequence (P25440 74-180 limits assumed): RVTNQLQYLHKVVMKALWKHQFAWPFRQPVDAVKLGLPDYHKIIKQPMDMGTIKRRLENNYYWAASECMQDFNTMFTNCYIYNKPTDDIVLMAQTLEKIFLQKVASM
T6 sequence (Q15059 34-140 limits assumed): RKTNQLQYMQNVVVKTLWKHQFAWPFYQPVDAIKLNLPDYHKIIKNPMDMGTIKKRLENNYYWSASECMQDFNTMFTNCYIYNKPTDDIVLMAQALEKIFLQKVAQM
T19 sequence (Q9BXF3 434-538 limits assumed): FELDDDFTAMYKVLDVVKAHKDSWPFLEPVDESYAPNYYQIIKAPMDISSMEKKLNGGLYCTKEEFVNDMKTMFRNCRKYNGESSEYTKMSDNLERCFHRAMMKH
T7 sequence (O15164 824-1006 limits assumed): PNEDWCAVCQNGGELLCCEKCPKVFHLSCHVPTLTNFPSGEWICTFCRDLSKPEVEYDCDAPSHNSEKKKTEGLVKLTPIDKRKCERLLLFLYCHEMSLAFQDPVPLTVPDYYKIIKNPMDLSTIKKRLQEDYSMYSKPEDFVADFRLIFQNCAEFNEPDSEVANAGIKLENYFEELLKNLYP
T10 sequence (P21675 1519-1628 limits assumed): as the sequence (Q8IZX4 1517-1626 limits assumed) above, with M46V, V51M, I102V, I107L counted along it
T18 sequence (P25440 344-453 limits assumed): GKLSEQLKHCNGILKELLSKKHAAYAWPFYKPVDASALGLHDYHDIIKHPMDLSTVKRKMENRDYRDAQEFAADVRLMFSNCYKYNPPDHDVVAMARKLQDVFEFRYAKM

BRD9 degradation after pretreatment with excess I-BRD9 (BRD9 [1]; [4]): prevented degradation
BRD9 degradation after pretreatment with excess lenalidomide (BRD9 [1]; [4]): prevented degradation
BRD9 degradation with co-treatment with carfilzomib (BRD9 [1]; [4]): Degradation was abolished
BRD9 levels after pretreatment with neddylation inhibitor (MLN-4924) (BRD9 [1]; [4]): rescued BRD9 levels
BRD9 loss (immunoblot) (BRD9 [1]; wild type MM.1S cells, 4 hour treatment, indicated doses): marked dose-dependent BRD9 loss
time to near complete BRD9 loss (BRD9 [3]; MOLM-13, 100 nM): ≤ 1 h
return of BRD9 during treatment (BRD9 [3]; MOLM-13, 100 nM, 24-hour treatment period): no detectable return
% Ctrl @ 1 μM (BRD4(1)): 1.8 % Ctrl
IC50 (CRBN-DDB1): 11.2 nM
% Ctrl @ 1 μM (CREBBP): 10 % Ctrl
% Ctrl @ 1 μM (BRD2(1)): 4 % Ctrl
% Ctrl @ 1 μM (GCN5L2): 62 % Ctrl
% Ctrl @ 1 μM (BRD3(1)): 5 % Ctrl
% Ctrl @ 1 μM (TRIM24 (PHD, Bromo.)): 84 % Ctrl
% Ctrl @ 1 μM (SMARCA2): 68 % Ctrl
% Ctrl @ 1 μM (BRDT(1)): 18 % Ctrl
% Ctrl @ 1 μM (TAF1(2)): 19 % Ctrl
% Ctrl @ 1 μM (BAZ^2B): 74 % Ctrl
% Ctrl @ 1 μM (WDR9(2)): 83 % Ctrl
% Ctrl @ 1 μM (BRDT(2)): 57 % Ctrl
% Ctrl @ 1 μM (ATAD2A): 100 % Ctrl
% Ctrl @ 1 μM (BRD4(2)): 40 % Ctrl
% Ctrl @ 1 μM (TAF1L(2)): 54 % Ctrl
% Ctrl @ 1 μM (EP300): 37 % Ctrl
% Ctrl @ 1 μM (BRD2(2)): 43 % Ctrl
% Ctrl @ 1 μM (CECR2): 0.15 % Ctrl
% Ctrl @ 1 μM (ATAD2B): 60 % Ctrl
% Ctrl @ 1 μM (BRPF1): 7.6 % Ctrl
% Ctrl @ 1 μM (FALZ): 60 % Ctrl
SMILES: COc1cc(-c2cn(C)c(=O)c3cc(C(=N)NC4CCS(=O)(=O)CC4)sc23)ccc1OCC(=O)NCCCCCCCCNc1cccc2c1CN(C1CCC(=O)NC1=O)C2=O (stereo not drawn) [Compound I-17]
bromodomain interaction profile [2]: also BRD7 and members of the BET family
BRD9 protein level (immunoblot) (BRD9 [3]; MOLM-13, 4 hour treatment, indicated concentrations, in words): effectively downregulate BRD9 over a broad range of concentrations; also recorded: effectively downregulating BRD9 protein over a broad range of concentrations
half-maximal anti-proliferative concentration (MV411 cell line): low nanomolar
maximal efficacy on cell proliferation (MV411 cell line): significantly exceeded that of the more selective I-25
